Tests used:
interleukin-12 (IL-12) = settings: reported by Asari et al. (Xu H et al. (2005)); cited from earlier work
[1] = tested on: rat spinal cord injury model; assay: Spinal cord evoked potential (SCEP) in rat spinal cord injury model, crush method with forceps; assay type: in vivo; settings: 60 μg/animal into the dura, seventh day after spinal cord injury, compared with saline-administered group
Description: (§1) A spinal cord injury model (crush model with forceps) was prepared as described below. Twelve-week-old male Wistar rats were used as experimental animals. The animals were shaved from neck to hip with an electric clipper under pentobarbital anesthesia (50 mg/kg body weight) and the skin was cleansed with 70% ethanol and Isodine (product of Meiji Seika Kaisha, Ltd.). After dorsal skin incision, the thoracic spine from T5 to T10 was exposed, the sixth thoracic spine (T6 thoracic spine) was subjected to hemi-laminectomy, and a small incision was made on the dura. Following local anesthesia with Xylocaine (Astra Zeneca), a forceps (with the tip trimmed to 0.3 mm) was inserted at the position of T6 until its tip reached the vertebral body, and the spinal cord was crushed by sandwiching it from both sides for 10 sec. […]
On the seventh day after the injury of the spinal cord, endotracheal intubation was performed into the experimental animal under halothane anesthesia (4.0% at the beginning, 1.0% during maintenance). […] Catheter electrodes were inserted into the experimental animal from the space between the second/third cervical vertebrae and the space between the 13th thoracic vertebra/first lumbar vertebra, and spinal cord evoked potential (SCEP) was measured with an electromyograph (Counterpoint, Dantec) after applying a supramaximal stimulus (stimulus frequency; 1 Hz, duration; 0.05 msec). […]

MRL-lpr/lpr mouse = settings: administration of L4; Xu H et al. (2005); cited from earlier work
[2] = tested on: rat spinal cord injury model; assay: Hind limb motor function (BBB scale) in rat spinal cord injury model, crush method with forceps; assay type: in vivo; settings: 60 μg/animal into the dura, seventh day after spinal cord injury, compared with physiological saline-administered group
Description: as §1
After injury of the spinal cord, the hind limb motor function was assessed daily for 7 days by two independent blind examiners according to the method of Basso et al. (refer to Basso D M et al (1995), (1996)) using Basso-Beeattie-Bresnahan (BBB) Scale, and their average score was taken as a final assessment score. […]
The BBB score was evaluated using Tukey's nonparametric multiple comparison test.

CC(=O)N[C@H]1C(O)O[C@H](COS(=O)(=O)O)[C@@H](O[C@@H]2O[C@H](COS(=O)(=O)O)[C@H](O)[C@H](O)[C@H]2O)[C@@H]1O (stereo partly drawn) [L4, Gal(6S)β1-4GlcNAc(6S)]
effect on interleukin-12 (IL-12) expression (interleukin-12 (IL-12)): has an inhibitory effect on interleukin-12 (IL-12) expression | spinal cord evoked potential (SCEP) amplitude [1]: a tendency for a recovery in the SCEP amplitude | IL-12 concentration in the blood (MRL-lpr/lpr mouse): reduces IL-12 concentration in the blood | cell death of T lymphocytes (MRL-lpr/lpr mouse): induces cell death of T lymphocytes | size of lymphatic organs (lymph node and spleen) (MRL-lpr/lpr mouse): causes shrinking of lymphatic organs | hind limb motor function (BBB score) [2]: significant recovery in hind limb motor function (P<0.001)
